Test systems include SK-MEL-2 melanoma; MDA-MB-435; UACC-62 melanoma; HCT-15 colon; OVCAR-3 ovarian; HCT-116 colon; U251 CNS; IGROV1 ovarian; UACC-257 melanoma; HL-60(TB) leukemia.
What all share (experiment): inhibition of tumour cell growth, NCI panel, 48 h

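Protocol summary: plate cells (96-well), add compound at 5 concentrations, incubate 48 h, interpolate endpoints linearly. The concentration for 50% growth inhibition is given as GI50. The concentration for full growth arrest is given as TGI.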 Where only a bound is given, the exact number is not on record here.

As for `Cc1cccc(NC(=O)c2sc3nc4c(cc3c2N)CCC4)c1C`, the GI50 in the test with SK-MEL-2 melanoma is 0.31 µM; in the test with MDA-MB-435 it was 0.0519 µM; in the test with UACC-62 melanoma, 0.267 µM; with HCT-15 colon, 0.264 µM; with OVCAR-3 ovarian, 0.308 µM; in the test on HCT-116 colon, 0.381 µM. Further, the GI50 in the test with U251 CNS is 0.457 µM; in the test with IGROV1 ovarian, 0.766 µM; in the test on UACC-257 melanoma, 2.67 µM; in the test on HL-60(TB) leukemia it was 0.239 µM. In addition, the TGI with SK-MEL-2 melanoma came out at 17.9 µM; with MDA-MB-435 it was 0.284 µM; in the test with UACC-62 melanoma it was 21 µM; in the test on HCT-15 colon, 21.3 µM; in the test with OVCAR-3 ovarian, 1.47 µM; with HCT-116 colon, 11.8 µM. The TGI with U251 CNS came out at 15.8 µM; with IGROV1 ovarian it was 53 µM; with UACC-257 melanoma, 46.6 µM; in the test on HL-60(TB) leukemia, 0.864 µM.

As to `COc1c(C)cnc(Cn2cnc3c(Cl)nc(N)nc32)c1C`, the GI50 is 0.434 µM with SK-MEL-2 melanoma; 0.179 µM in the test on MDA-MB-435; 0.301 µM with UACC-62 melanoma; 0.107 µM in the test with HCT-15 colon; 0.658 µM in the test with OVCAR-3 ovarian; 0.12 µM in the test with HCT-116 colon. In addition, the GI50 in the test on U251 CNS is 0.415 µM; in the test on IGROV1 ovarian, 0.455 µM; with UACC-257 melanoma, 0.297 µM; in the test on HL-60(TB) leukemia, 0.245 µM. For the same molecule, the TGI in the test with SK-MEL-2 melanoma was greater than 59.5 µM; in the test on MDA-MB-435, 40.1 µM; in the test on UACC-62 melanoma it was 6.95 µM; with HCT-15 colon it was 26.7 µM; in the test with OVCAR-3 ovarian, greater than 100 µM; in the test on HCT-116 colon, greater than 100 µM. Also, the TGI in the test on U251 CNS is greater than 100 µM; in the test with IGROV1 ovarian, greater than 100 µM; in the test with UACC-257 melanoma it was 9.57 µM.

With `Cc1nc2cc(NC(=O)CN3CCN(CCN4C(=O)c5cccc6cccc(c56)C4=O)CC3)ccc2s1`, the GI50 in the test with SK-MEL-2 melanoma is 6.62 µM; in the test with MDA-MB-435, 4.6 µM; with UACC-62 melanoma, 4.98 µM; in the test with HCT-15 colon it was 3.58 µM; in the test on OVCAR-3 ovarian it was 7.91 µM; in the test with HCT-116 colon, 2.94 µM. In addition, the GI50 with U251 CNS was 4.37 µM; with IGROV1 ovarian, 6.05 µM; in the test with UACC-257 melanoma it was 5.83 µM; with HL-60(TB) leukemia it was 6.36 µM. For the same molecule, the TGI in the test with SK-MEL-2 melanoma amounted to 24.1 µM; with MDA-MB-435, 19.4 µM; in the test with UACC-62 melanoma, 17.6 µM; in the test on HCT-15 colon, 16.5 µM; in the test on OVCAR-3 ovarian, 20.7 µM; with HCT-116 colon, 14.7 µM. The TGI was 18.9 µM with U251 CNS, greater than 100 µM in the test with IGROV1 ovarian, greater than 100 µM in the test on UACC-257 melanoma and 26.3 µM in the test on HL-60(TB) leukemia.

As for `COc1cc2c(c(OC)c1OC)-c1c(c3ccc([N+](=O)[O-])cc3c(=O)n1CCCN=[N+]=[N-])C2=O`, the GI50 in the test on SK-MEL-2 melanoma was 2.49 µM; with MDA-MB-435 it was greater than 100 µM; with UACC-62 melanoma it was 32.5 µM; in the test with HCT-15 colon, 44.6 µM; with OVCAR-3 ovarian, 45.2 µM; with HCT-116 colon, 14.2 µM. The GI50 in the test with U251 CNS was 8.36 µM; in the test with IGROV1 ovarian, 0.949 µM; with UACC-257 melanoma it was 0.0793 µM; in the test with HL-60(TB) leukemia, greater than 100 µM. Also, the TGI is 22.9 µM in the test on SK-MEL-2 melanoma; greater than 100 µM in the test on MDA-MB-435; greater than 100 µM in the test with UACC-62 melanoma; greater than 100 µM with HCT-15 colon; greater than 100 µM in the test on OVCAR-3 ovarian; 38 µM in the test on HCT-116 colon. The TGI in the test with U251 CNS is 23.3 µM; in the test with IGROV1 ovarian, 33.3 µM; with UACC-257 melanoma, 11.9 µM; with HL-60(TB) leukemia, greater than 100 µM.

For the molecule `C#Cc1cccc(NC(=O)Nc2cccc(NC(=O)CCl)c2)c1`, the GI50 with SK-MEL-2 melanoma was 32.7 µM; in the test with MDA-MB-435, 24.2 µM; in the test with UACC-62 melanoma, 33.1 µM; in the test on HCT-15 colon, 11.8 µM; in the test on OVCAR-3 ovarian, 14.6 µM; in the test on HCT-116 colon, 20.9 µM. Besides, the GI50 in the test on U251 CNS was 16.4 µM; in the test on IGROV1 ovarian, 11.6 µM; in the test with UACC-257 melanoma, greater than 82.5 µM; in the test with HL-60(TB) leukemia it was 18.6 µM. Further, the TGI in the test on SK-MEL-2 melanoma was greater than 82.5 µM; with MDA-MB-435, greater than 82.5 µM; in the test on UACC-62 melanoma it was greater than 82.5 µM; in the test with HCT-15 colon it was 26.7 µM; in the test on OVCAR-3 ovarian it was 36.5 µM; in the test on HCT-116 colon it was greater than 82.5 µM. Moreover, the TGI in the test with U251 CNS is 39.3 µM; in the test on IGROV1 ovarian, 26 µM; in the test with UACC-257 melanoma it was greater than 82.5 µM; in the test with HL-60(TB) leukemia it was 73.9 µM.

In the case of `Cc1ccc(SCN2CCCCC2)cc1` (tested in a mixture with another compound), the TGI is 31.1 µM with SK-MEL-2 melanoma; 25.6 µM with MDA-MB-435; 27.7 µM in the test with UACC-62 melanoma; 32 µM in the test with HCT-15 colon; 30 µM in the test on OVCAR-3 ovarian; 23.4 µM with HCT-116 colon. Also, the TGI is 23.2 µM with U251 CNS, 10.9 µM with IGROV1 ovarian, 30.6 µM in the test with UACC-257 melanoma and 4.98 µM in the test on HL-60(TB) leukemia.

With `CN(C)c1ccc(/C=C/C(=O)c2ccc(Nc3nc(Nc4ccc(F)cc4)nc(Nc4ccc(Cl)cc4)n3)cc2)cc1`, the GI50 in the test with SK-MEL-2 melanoma is 4.6 µM; in the test with MDA-MB-435, 3.03 µM; in the test with UACC-62 melanoma it was 14 µM; with HCT-15 colon, 4.66 µM; with OVCAR-3 ovarian, 5.48 µM; in the test with HCT-116 colon, 3.3 µM. In addition, the GI50 was 7.66 µM in the test on U251 CNS, 3.02 µM in the test with IGROV1 ovarian, 11 µM in the test with UACC-257 melanoma and 1.75 µM in the test with HL-60(TB) leukemia. In addition, the TGI was 18.6 µM with SK-MEL-2 melanoma; 17.3 µM in the test on MDA-MB-435; 37.9 µM in the test with UACC-62 melanoma; greater than 100 µM in the test with HCT-15 colon; 21.6 µM in the test on OVCAR-3 ovarian; 15.5 µM with HCT-116 colon. The TGI turned out to be 70.6 µM with U251 CNS, 22.1 µM with IGROV1 ovarian, 54.7 µM in the test with UACC-257 melanoma and 5.34 µM with HL-60(TB) leukemia.

Regarding `CCCCc1ccc(C(N)=O)nc1`, the GI50 in the test on SK-MEL-2 melanoma, in the test with MDA-MB-435, in the test with UACC-62 melanoma, with HCT-15 colon, with OVCAR-3 ovarian and in the test on HCT-116 colon was greater than 100 µM throughout. Besides, the GI50 in the test on U251 CNS, with IGROV1 ovarian, in the test with UACC-257 melanoma and with HL-60(TB) leukemia was greater than 100 µM in each case. For the same molecule, the TGI in the test on SK-MEL-2 melanoma, in the test on MDA-MB-435, in the test on UACC-62 melanoma, in the test with HCT-15 colon, in the test on OVCAR-3 ovarian and with HCT-116 colon was greater than 100 µM in each case. The TGI in the test on U251 CNS, with IGROV1 ovarian, with UACC-257 melanoma and with HL-60(TB) leukemia was greater than 100 µM each time.
